Measurements taken from ChEMBL document CHEMBL1201862, “PubChem BioAssay data set” (2004).
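Step 1: Grow cells in 96-well plates. Step 2: Expose to compound for 48 hours at 5 concentrations. Step 3: Interpolate endpoints linearly; if unreached, use highest concentration. GI50 = concentration required for 50% inhibition of growth.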 Active and inactive are the calls of the source. No stated cut-off is given here; in the data, active = GI50 up to about 1.1 µM and inactive = higher.

Columns and labels:
Test in all cases: inhibition of tumour cell growth, NCI panel, 48 h
[1] = test system: LXFL 529
[2] = test system: XF498
[3] = test system: KM-20L2
[4] = test system: DMS-114
[5] = test system: T47D
[6] = test system: MDA-MB-435
[7] = test system: DMS-273
[8] = test system: HOP-18
[9] = test system: RXF 631

SMILES | GI50 [1] | GI50 [2] | GI50 [3] | GI50 [4] | GI50 [5] | GI50 [6] | GI50 [7] | GI50 [8] | GI50 [9]
COc1ccc(/C=C/C(=O)C(C)(C)C)cc1OC | 43.6 µM (inactive) | 66.8 µM (inactive) | 41.8 µM (inactive) | 39.7 µM (inactive) |  |  |  |  | 
Cc1cn(C2CC(n3cc(Cn4ccc(=O)[nH]c4=O)nn3)C(CO)O2)c(=O)[nH]c1=O (stereo unspecified) |  |  |  |  | > 100 µM (inactive) | > 100 µM (inactive) |  |  | 
CCOC(=O)C(C(=O)OCC)C(=S)NC1OC(COC(C)=O)C(OC(C)=O)C(OC(C)=O)C1OC(C)=O (stereo unspecified) |  |  |  |  | > 100 µM (inactive) | > 100 µM (inactive) |  |  | 
Cc1ccc(/N=N/C(C2=NC(=O)CS2)c2nc3ccccc3[nH]2)cc1 (stereo unspecified) | > 100 µM (inactive) | > 100 µM (inactive) | > 100 µM (inactive) | > 100 µM (inactive) |  |  | > 100 µM (inactive) |  | 
CC(C)(Br)C(=O)N1CCN(C(c2ccccc2)c2ccccc2)CC1 |  |  |  |  |  | > 100 µM (inactive) |  |  | 
O=C1N=C2N=C(c3ccc(Cl)cc3)N(c3ccc(Cl)cc3)N2Sc2ccccc21 | > 100 µM (inactive) | 40.9 µM (inactive) | > 100 µM (inactive) | > 100 µM (inactive) |  |  | 67.1 µM (inactive) | > 100 µM (inactive) | 
N#CCCSC(=S)C1CCCC1=N (stereo unspecified) |  |  |  |  | 36 µM (inactive) | > 100 µM (inactive) |  |  | 
COc1ccc(C2=C(N)c3cc(OC)ccc3C2=O)cc1 |  |  |  |  | 36.7 µM (inactive) | > 100 µM (inactive) |  |  | 
CN1CCC(C(=O)NNc2ccccc2)CC1 | 0.9 µM (active) | > 100 µM (inactive) | 1.69 µM (inactive) | 9.31 µM (inactive) |  |  | 3.1 µM (inactive) | > 61.5 µM (inactive) | 
C#CCCCCC#Cc1ccccc1C(=O)OC |  | 65.8 µM (inactive) | 58.2 µM (inactive) | 17.3 µM (inactive) |  |  | 38.3 µM (inactive) | > 100 µM (inactive) | 
CCOC(=O)N1CCN(Cc2cc(=O)n3cc(C)ccc3n2)CC1 |  |  |  |  |  | > 100 µM (inactive) |  |  | 
CC1CC(c2ccc([N+](=O)[O-])cc2)=Nc2ccccc2[S+]1[O-] (stereo unspecified) |  | 28.7 µM (inactive) | 16.1 µM (inactive) | 18.4 µM (inactive) |  |  | 19 µM (inactive) |  | 20.8 µM (inactive)
CCCCCCNC(=O)C(C)C1CCC2(C)C=CC(=O)C(C)=C2C1O (stereo unspecified) |  | > 100 µM (inactive) | > 100 µM (inactive) | 45.3 µM (inactive) |  |  | > 100 µM (inactive) | > 100 µM (inactive) | 
COc1cc(OC)cc(N2CCC(c3c(N)nc(N)nc3Cl)CC2)c1 | 37.8 µM (inactive) | 26.3 µM (inactive) | > 100 µM (inactive) |  |  |  | > 100 µM (inactive) |  | > 100 µM (inactive)
Cc1cc2c(cc1Cl)Sc1n[nH]c(=O)n1S2(=O)=O |  |  |  |  |  | > 100 µM (inactive) |  |  | 
CC1(C)C(=O)OC(n2cc(F)c(=O)[nH]c2=O)C1=O (stereo unspecified) | > 100 µM (inactive) | > 100 µM (inactive) | > 100 µM (inactive) | > 100 µM (inactive) |  |  |  | > 100 µM (inactive) | 
Cc1coc2c1C[C@@]1(C)[C@H](CCC[C@@H]1C)[C@H]2O |  |  |  |  | 19.9 µM (inactive) | 30.1 µM (inactive) |  |  | 
CCOC(=O)c1ccc(NC(=O)O/N=C(/Cl)CC)cc1 |  |  |  |  | 7.73 µM (inactive) | 17.7 µM (inactive) |  |  | 
NCC[Se][Se]CCN |  |  |  |  | 5.58 µM (inactive) | 12.3 µM (inactive) |  |  | 
CCOC(=O)CP(=S)(S)c1ccccc1 (stereo unspecified) | > 100 µM (inactive) | 45.2 µM (inactive) | > 100 µM (inactive) | > 100 µM (inactive) |  |  | > 100 µM (inactive) |  | 
Cc1ccc2c(O)cc(-c3ccc(F)cc3)nc2n1 |  |  |  |  | 41.9 µM (inactive) |  |  |  | 
COc1cc2c(cc1O)CCN(C)[C@H]2Cc1ccc(Oc2c(O)c(OC)cc3c2C[C@H]2c4c(c(OC)c(OC)c(OC)c4-3)CCN2C)cc1 [THALIFABERIDINE] |  |  |  |  | 6.05 µM (inactive) | 3.51 µM (inactive) |  |  | 
